Reference: US12071488B2, “Method of sensitizing cancer cells to anti-cancer treatment” (TWO TO BIOTECH LTD., priority 2017, dated 2024)

Assays:
[1] = test system: HER2 receptor; assay: FACS analysis of HER2 receptor expression on MDA-MB-231 cells; format: cell-based, human
Experimental: (§1) Cells (MDA-MB-231, MDA-MB-468 and BTS-149) were grown until 70-80% density was reached. Then the growth medium was discarded and the cells were treated with trypsin and medium as described above. After the cells were detached from the surface, the 20 ml cell suspension (namely cells in medium and Trypsin) were transferred into 50 ml conical tubes and centrifuged at 300 g for 10 min in 4° C. Next, the supernatant was discarded and 2 ml fresh medium were added to the cell pellet. Then the cells were fluidized and 13 ml medium was added to the tubes, thereby suspending the cells in a total of 15 ml medium. The cells were counted and seeded at 10.000-15,000 cells/well on chamber slide in 1 ml growing medium. The chamber slide seeded with cells was placed in the hood for 1 hour and then transferred to the incubator for an overnight incubation under the above conditions. The following day the medium was aspirated from the cell chamber slides and discarded and 1 ml cell treatment medium supplemented with APC1 (at a final concentration of 100 or 250 μg/ml) or control (medium only). Medium was added to each one of the wells (aliquots of APC1 were used in order to avoid repeated freeze-thaw cycle). The cells were then incubated for 24-144 hours. […]

[2] = test system: HER2; assay: Immunofluorescence of HER2 in MDA-MB-231 cells; format: cell-based, human
Experimental: as §1

[3] = test system: MDA-MB-468 cells; assay: Analysis of apoptosis in MDA-MB-468 cells with APC1 and Herceptin; format: cell-based, human; conditions: Herceptin 12 μg/ml, APC1 250 μg/ml (FIG. 9)
Text: Cells were examined for apoptosis or HER2 expression using FACS analysis. The HER2 antibody used was abcam ab16901. The marker Annexin (Enco) was used for assessment of apoptosis.

[4] = test system: MDA-MB-231 cells; assay: Resazurin cell viability assay with APC1 and cisplatin or doxorubicin, MDA-MB-231 cells; format: cell-based, human; conditions: MDA-MB-231 pre-incubated with APC1 250 μg/ml; doxorubicin 0.3, 0.5, 1 μM, 48 hours; concentration dependent
Experimental: (§2) Cells treated with APC1 were seeded with APC1 at 250 μg/ml. The cells were incubated overnight.
(§3) Then the media was aspirated from the plates, and 100 μl of the treatment solutions were added to the appropriate wells, each treatment in triplicates. The cells were incubated for 48 hours.

[5] = test system: MDA-MB-468 cells; assay: Resazurin cell viability assay with APC1 and cisplatin or doxorubicin, MDA-MB-468 cells; format: cell-based, human; conditions: MDA-MB-468 pre-incubated with APC1 250 μg/ml; doxorubicin 0.3, 0.5, 1 μM, 48 hours; concentration dependent
Experimental: as §2, §3

[6] = test system: human ovarian cancer cells (OV90); assay: Relative tumor volume in nude mice inoculated with human ovarian cancer cells; format: in vivo; conditions: OV90 tumors
Experimental: During the treatment period, each mouse was weighted, and the tumor size was measured by Digital caliper.
When the tumors exceeded a volume of 40 mm^3 or 50 mm^3 (for OV90 and Panc1, respectively), the mice were randomly divided into four groups of 8 mice each, as follows. A control group was treated with saline only, the APC1-treated group was treated three times a week with doses of APC1 at 15 mg/kg each, the doxorubicin and APC treated group was treated twice a week with doses of APC1 (at 15 mg/kg each) and once a week with doxorubicin (at 3 mg/kg) and the doxorubicin-treated group was treated with doxorubicin only, once a week at a dose of 3 mg/kg. These dosing protocols were repeated throughout the experiment, namely for 5 weeks.

[7] = test system: ovarian cancer cells OV90 and OV3; assay: Glutathione level in ovarian cancer cells treated with APC1; format: cell-based, human; conditions: ovarian cancer cells (FIG. 18A)
Experimental: (§4) Gluthatione Assay Kit (Sigma CS0260);
(§5) Cell lines (MDA-MB-231, MDA-MB-468) were grown in 75 cm^2 cell culture flask, reached 80-90% confluence. The cells were treated with APC1 (250 μg/ml, 2 times per week for 1 week).
(§6) Cells were washed twice with 10 ml PBS, PBS (5 ml) was added and the cells were collected by scrapping, centrifuged at 300G, 4° C. for 5 minutes, the supernatant was then discarded and the cells were treated with APC1 as indicated above. The values of the Glutathione Standard Solutions were used to determine the standard curve and the delta A412/min equivalent to 1 nmole of reduced glutathione per well was calculated according to manufacturer's instructions.
(§7) As detailed above, the ovarian cancer cells OV90 and OV3, the pancreatic cancer cells BxPC3 and Panel and the TNBC cancer cells MDA-MB-231 and MDA-MB-468 were treated with APC1 and then the relative glutathione levels in these cells was measured as detailed above.

[8] = test system: pancreatic cancer cells BxPC3; assay: Glutathione level in pancreatic cancer cells treated with APC1; format: cell-based, human; conditions: pancreatic cancer cells (FIG. 18B)
Experimental: as §4, §5, §6, §7

For “EKGAAFSPIYPRRK (C terminal peptide of KTPAF50) [APC1, polypeptide consisting of the 14 C-terminal amino acid residues of the peptide KTPAF50]”, the “dependence of HER2 expression on APC1 concentration (FACS)” value ([1]; 100 μg/ml vs 250 μg/ml APC1) was “concentration dependent”, the “HER2 expression (FACS)” value ([1]; MDA-MB-231 cells, two doses of APC1 at 100 or 250 μg/ml, vs control cells) was “rise in HER2 expression” and the “HER2 expression by immunofluorescence” value ([2]; single dose 250 μg/ml APC1, 48 hours, vs control cells) was “clear HER2 expression”. For the same sequence, the “HER2 expression by immunofluorescence, multiple doses” value ([2]; three doses of 250 μg/ml APC1, 144, 96 and 72 hours, vs single dose) was “enhanced”, the level of apoptosis [3] was 15% and the “sensitivity to doxorubicin (relative cell viability)” value [4] was “increased the sensitivity”. For the same sequence, the “sensitivity to doxorubicin (relative cell viability)” value [5] was “increased the sensitivity”, the “effect on tumor volume compared with doxorubicin-treated group” value ([6]; APC1 15 mg/kg three times a week) was “more pronounced” and the relative tumor volume ([6]; APC1 15 mg/kg, doxorubicin 3 mg/kg once a week, 5 weeks, control increased linearly) was “modest increases”. For the same sequence, the level of glutathione [7] was “decreased” and the level of glutathione [8] was “decreased”.
